Blank lines part the entries; values can stand above or below the molecule they belong to.
Assays:
Assay in all cases: KINOMEscan competition binding
Settings in all cases: compound 10.0 µM
[1] = biological target: CHEK1 (human) (UniProt O14757)
[2] = biological target: PRKD2 (human) (UniProt Q9BZL6)
[3] = biological target: CDK9 (human) (UniProt P50750)
[4] = biological target: MAPKAPK2 (human) (UniProt P49137)
[5] = biological target: PIK3C2B (human) (UniProt O00750)
[6] = biological target: PIK3CD (human) (UniProt O00329)
[7] = biological target: ACVR1B (human) (UniProt P36896)
[8] = biological target: AKT1 (human) (UniProt P31749)
[9] = biological target: AKT2 (human) (UniProt P31751)
[10] = biological target: CAMK2G (human) (UniProt Q13555)
[11] = biological target: CHEK2 (human) (UniProt O96017)
[12] = biological target: EPHA1 (human) (UniProt P21709)
[13] = biological target: EPHA2 (human) (UniProt P29317)
[14] = biological target: EPHA6 (human) (UniProt Q9UF33)
[15] = biological target: EPHA7 (human) (UniProt Q15375)
[16] = biological target: ERBB2 (human) (UniProt P04626)
[17] = biological target: FGFR1 (human) (UniProt P11362)
[18] = biological target: FGFR4 (human) (UniProt P22455)
[19] = biological target: INSRR (human) (UniProt P14616)
[20] = biological target: LIMK1 (human) (UniProt P53667)
[21] = biological target: MAP2K2 (human) (UniProt P36507)
[22] = biological target: MAP4K1 (human) (UniProt Q92918)
[23] = biological target: MAPK11 (human) (UniProt Q15759)
[24] = biological target: MAPK3 (human) (UniProt P27361)
[25] = biological target: MAPK4 (human) (UniProt P31152)
[26] = biological target: MERTK (human) (UniProt Q12866)
[27] = biological target: MST1R (human) (UniProt Q04912)
[28] = biological target: NTRK1 (human) (UniProt P04629)
[29] = biological target: PAK2 (human) (UniProt Q13177)
[30] = biological target: PIK3CB (human) (UniProt P42338)
[31] = biological target: PLK3 (human) (UniProt Q9H4B4)
[32] = biological target: PRKCE (human) (UniProt Q02156)
[33] = biological target: RAF1 (human) (UniProt P04049)
[34] = tested on: RET (human), P07949 [M918T]
[35] = tested on: RET (human), P07949 [V804L]
[36] = biological target: RPS6KA2 KD1 (human) (UniProt Q15349)
[37] = biological target: RPS6KA4 KD1 (human) (UniProt O75676)
[38] = biological target: RPS6KA5 KD1 (human) (UniProt O75582)
[39] = biological target: SGK110 (human) (UniProt P0C264)
[40] = biological target: STK38L (human) (UniProt Q9Y2H1)
[41] = biological target: TXK (human) (UniProt P42681)
[42] = biological target: TYRO3 (human) (UniProt Q06418)

Sequence of PAK2 (human) (Q13177 whole entry, looked up): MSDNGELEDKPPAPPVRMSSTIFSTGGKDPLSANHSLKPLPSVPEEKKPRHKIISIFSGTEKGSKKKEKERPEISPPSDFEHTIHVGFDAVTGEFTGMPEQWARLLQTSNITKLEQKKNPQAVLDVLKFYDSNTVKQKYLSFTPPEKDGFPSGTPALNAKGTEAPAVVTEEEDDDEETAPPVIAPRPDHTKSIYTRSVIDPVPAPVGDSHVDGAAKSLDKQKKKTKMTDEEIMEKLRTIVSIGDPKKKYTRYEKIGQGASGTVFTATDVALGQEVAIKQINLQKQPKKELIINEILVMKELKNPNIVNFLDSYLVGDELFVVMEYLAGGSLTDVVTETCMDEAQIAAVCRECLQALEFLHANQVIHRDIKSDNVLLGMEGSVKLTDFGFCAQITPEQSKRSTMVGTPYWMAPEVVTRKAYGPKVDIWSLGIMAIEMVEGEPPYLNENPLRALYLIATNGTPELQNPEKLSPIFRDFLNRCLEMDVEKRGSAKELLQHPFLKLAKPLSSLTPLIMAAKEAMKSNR
Sequence of STK38L (human) (Q9Y2H1 whole entry, looked up): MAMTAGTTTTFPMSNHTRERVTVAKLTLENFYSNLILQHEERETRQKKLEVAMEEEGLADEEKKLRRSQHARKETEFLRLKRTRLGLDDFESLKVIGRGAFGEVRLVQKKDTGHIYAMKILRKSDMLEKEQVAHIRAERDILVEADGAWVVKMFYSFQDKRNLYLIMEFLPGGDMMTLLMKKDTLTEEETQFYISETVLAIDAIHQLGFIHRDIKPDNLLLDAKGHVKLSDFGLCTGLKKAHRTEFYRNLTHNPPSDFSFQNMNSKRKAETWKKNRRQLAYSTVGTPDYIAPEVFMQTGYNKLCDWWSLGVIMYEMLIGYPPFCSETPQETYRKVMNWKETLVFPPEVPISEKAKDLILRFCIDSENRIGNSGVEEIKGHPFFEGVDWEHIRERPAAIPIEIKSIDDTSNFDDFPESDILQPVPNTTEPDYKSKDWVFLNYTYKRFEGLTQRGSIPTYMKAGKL
Sequence of TXK (human) (P42681 whole entry, looked up): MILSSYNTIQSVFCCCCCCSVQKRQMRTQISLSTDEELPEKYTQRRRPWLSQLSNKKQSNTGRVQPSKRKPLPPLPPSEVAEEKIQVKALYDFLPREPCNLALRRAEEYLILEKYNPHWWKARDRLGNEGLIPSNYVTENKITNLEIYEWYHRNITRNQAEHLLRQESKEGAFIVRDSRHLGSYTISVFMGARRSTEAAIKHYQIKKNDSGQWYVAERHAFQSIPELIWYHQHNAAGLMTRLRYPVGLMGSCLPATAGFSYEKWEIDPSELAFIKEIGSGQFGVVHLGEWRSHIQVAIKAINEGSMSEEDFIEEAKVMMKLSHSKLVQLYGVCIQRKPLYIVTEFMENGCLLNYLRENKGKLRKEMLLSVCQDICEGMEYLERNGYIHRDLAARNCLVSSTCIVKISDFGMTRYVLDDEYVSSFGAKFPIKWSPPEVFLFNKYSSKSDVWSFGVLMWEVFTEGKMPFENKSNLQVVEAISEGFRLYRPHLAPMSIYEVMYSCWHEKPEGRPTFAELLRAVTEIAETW
Sequence of PLK3 (human) (Q9H4B4 whole entry, looked up): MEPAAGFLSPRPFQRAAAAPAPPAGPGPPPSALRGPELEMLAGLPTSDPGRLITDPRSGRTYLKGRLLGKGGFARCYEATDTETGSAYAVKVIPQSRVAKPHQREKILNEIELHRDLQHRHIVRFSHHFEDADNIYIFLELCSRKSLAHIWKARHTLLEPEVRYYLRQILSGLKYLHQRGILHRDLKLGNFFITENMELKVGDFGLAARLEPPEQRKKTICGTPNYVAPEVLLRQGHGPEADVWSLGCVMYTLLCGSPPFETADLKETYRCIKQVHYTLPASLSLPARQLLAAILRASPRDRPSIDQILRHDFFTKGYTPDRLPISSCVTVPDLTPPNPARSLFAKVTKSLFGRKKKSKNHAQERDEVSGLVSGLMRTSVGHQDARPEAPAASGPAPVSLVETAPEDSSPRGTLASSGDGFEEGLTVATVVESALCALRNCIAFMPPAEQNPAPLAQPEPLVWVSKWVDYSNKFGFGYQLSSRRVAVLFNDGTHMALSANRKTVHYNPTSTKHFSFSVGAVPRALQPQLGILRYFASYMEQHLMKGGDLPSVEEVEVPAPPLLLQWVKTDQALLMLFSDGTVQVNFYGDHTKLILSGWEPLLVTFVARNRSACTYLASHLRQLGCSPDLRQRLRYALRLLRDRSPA
Sequence of ACVR1B (human) (P36896 whole entry, looked up): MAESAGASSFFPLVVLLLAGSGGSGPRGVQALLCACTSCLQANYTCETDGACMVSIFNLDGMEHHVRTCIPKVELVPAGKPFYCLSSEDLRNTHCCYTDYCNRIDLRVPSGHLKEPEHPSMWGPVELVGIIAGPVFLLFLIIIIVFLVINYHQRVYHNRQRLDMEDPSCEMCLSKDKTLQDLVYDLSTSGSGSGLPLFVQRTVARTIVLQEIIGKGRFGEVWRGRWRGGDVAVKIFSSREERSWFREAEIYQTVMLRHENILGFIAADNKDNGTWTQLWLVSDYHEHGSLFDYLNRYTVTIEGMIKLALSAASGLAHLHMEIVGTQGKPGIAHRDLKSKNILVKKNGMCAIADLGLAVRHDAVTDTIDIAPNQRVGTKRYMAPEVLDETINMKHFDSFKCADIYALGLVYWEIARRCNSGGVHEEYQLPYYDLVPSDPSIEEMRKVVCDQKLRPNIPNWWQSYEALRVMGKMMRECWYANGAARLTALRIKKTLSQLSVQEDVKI
Sequence of PIK3C2B (human) (O00750 whole entry, looked up): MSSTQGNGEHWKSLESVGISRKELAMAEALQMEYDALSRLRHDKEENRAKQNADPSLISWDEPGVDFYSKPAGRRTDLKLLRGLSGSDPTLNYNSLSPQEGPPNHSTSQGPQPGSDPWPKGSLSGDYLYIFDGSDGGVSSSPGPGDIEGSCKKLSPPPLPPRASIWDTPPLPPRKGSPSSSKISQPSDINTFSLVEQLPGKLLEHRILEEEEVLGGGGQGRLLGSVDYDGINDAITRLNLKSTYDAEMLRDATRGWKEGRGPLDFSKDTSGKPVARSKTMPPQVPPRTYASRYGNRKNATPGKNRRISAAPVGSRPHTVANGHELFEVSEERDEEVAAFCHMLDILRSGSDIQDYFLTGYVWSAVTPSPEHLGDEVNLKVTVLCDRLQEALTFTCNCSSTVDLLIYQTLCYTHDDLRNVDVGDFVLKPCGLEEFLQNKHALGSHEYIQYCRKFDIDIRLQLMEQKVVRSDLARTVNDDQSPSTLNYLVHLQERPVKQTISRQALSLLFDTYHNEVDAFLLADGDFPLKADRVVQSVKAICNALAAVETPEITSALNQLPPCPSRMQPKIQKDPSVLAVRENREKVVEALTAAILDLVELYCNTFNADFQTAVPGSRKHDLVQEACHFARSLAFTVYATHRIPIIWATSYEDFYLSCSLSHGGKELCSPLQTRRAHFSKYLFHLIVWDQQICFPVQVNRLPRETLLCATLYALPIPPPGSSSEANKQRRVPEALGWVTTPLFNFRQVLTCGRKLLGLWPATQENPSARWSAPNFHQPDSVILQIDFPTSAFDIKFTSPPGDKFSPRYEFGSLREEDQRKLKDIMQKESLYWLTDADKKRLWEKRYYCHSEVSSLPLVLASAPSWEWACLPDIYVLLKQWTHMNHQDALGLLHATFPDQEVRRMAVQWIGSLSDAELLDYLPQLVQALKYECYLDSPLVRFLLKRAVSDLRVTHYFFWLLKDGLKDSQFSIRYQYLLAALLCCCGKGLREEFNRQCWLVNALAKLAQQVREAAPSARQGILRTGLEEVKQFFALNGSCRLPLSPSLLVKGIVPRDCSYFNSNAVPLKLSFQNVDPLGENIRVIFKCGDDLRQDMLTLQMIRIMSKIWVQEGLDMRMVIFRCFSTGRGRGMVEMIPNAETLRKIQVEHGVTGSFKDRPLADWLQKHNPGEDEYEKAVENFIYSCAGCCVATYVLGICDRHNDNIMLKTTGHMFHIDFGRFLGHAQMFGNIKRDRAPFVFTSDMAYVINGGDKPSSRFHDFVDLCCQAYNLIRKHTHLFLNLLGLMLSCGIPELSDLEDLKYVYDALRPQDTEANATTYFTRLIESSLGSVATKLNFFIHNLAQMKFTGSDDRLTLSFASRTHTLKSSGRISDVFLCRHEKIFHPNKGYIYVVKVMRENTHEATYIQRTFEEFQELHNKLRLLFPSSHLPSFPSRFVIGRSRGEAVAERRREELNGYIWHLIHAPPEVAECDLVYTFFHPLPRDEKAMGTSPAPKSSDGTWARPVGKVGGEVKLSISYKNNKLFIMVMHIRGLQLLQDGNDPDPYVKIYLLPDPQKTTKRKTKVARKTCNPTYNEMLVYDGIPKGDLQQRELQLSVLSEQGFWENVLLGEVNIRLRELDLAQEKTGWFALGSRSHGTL
Sequence of CDK9 (human) (P50750 whole entry, looked up): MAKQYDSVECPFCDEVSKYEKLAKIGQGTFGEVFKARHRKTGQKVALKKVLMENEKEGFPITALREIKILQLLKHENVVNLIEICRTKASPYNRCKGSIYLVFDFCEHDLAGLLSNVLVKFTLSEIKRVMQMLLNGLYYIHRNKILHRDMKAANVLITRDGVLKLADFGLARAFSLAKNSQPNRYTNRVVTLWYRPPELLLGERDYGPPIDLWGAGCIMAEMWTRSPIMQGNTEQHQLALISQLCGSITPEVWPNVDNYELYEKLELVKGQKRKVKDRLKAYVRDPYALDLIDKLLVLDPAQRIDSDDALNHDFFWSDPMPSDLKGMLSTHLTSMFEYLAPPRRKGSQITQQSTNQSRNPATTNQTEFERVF
Sequence of SGK110 (human) (P0C264 whole entry, looked up): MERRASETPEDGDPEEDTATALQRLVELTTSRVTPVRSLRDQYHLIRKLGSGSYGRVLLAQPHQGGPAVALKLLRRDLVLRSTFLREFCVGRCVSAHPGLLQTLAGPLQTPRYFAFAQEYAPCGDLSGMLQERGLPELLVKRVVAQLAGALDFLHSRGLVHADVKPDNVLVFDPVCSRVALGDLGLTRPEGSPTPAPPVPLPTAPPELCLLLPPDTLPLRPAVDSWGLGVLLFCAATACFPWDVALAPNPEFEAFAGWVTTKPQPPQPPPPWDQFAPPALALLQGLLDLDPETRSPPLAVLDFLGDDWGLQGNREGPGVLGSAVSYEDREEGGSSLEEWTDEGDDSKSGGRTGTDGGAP

SMILES: CN1C(=O)c2ccccc2N(C)c2nc(Nc3ccc(N4CCC(O)CC4)cc3)ncc21
kinase still bound, per cent of control [7]: 91%
kinase still bound, per cent of control [8]: 100%
kinase still bound, per cent of control [9]: 100%
kinase still bound, per cent of control [10]: 100%
kinase still bound, per cent of control [3]: 100%
kinase still bound, per cent of control [1]: 76%
kinase still bound, per cent of control [11]: 81%
kinase still bound, per cent of control [12]: 100%
kinase still bound, per cent of control [13]: 99%
kinase still bound, per cent of control [14]: 100%
kinase still bound, per cent of control [15]: 100%
kinase still bound, per cent of control [16]: 99%
kinase still bound, per cent of control [17]: 61%
kinase still bound, per cent of control [18]: 73%
kinase still bound, per cent of control [19]: 96%
kinase still bound, per cent of control [20]: 97%
kinase still bound, per cent of control [21]: 100%
kinase still bound, per cent of control [22]: 64%
kinase still bound, per cent of control [23]: 88%
kinase still bound, per cent of control [24]: 100%
kinase still bound, per cent of control [25]: 100%
kinase still bound, per cent of control [4]: 100%
kinase still bound, per cent of control [26]: 100%
kinase still bound, per cent of control [27]: 94%
kinase still bound, per cent of control [28]: 64%
kinase still bound, per cent of control [29]: 81%
kinase still bound, per cent of control [5]: 89%
kinase still bound, per cent of control [30]: 94%
kinase still bound, per cent of control [6]: 58%
kinase still bound, per cent of control [31]: 97%
kinase still bound, per cent of control [32]: 99%
kinase still bound, per cent of control [2]: 99%
kinase still bound, per cent of control [33]: 100%
kinase still bound, per cent of control [34]: 4.2%
kinase still bound, per cent of control [35]: 1.7%
kinase still bound, per cent of control [36]: 68%
kinase still bound, per cent of control [37]: 100%
kinase still bound, per cent of control [38]: 100%
kinase still bound, per cent of control [39]: 5.4%
kinase still bound, per cent of control [40]: 82%
kinase still bound, per cent of control [41]: 85%
kinase still bound, per cent of control [42]: 100%

SMILES: N=C1NC(=O)/C(=C/c2ccc(-c3csc4ccccc34)o2)S1
kinase still bound, per cent of control [33]: 33%

SMILES: N=C1NC(=O)/C(=C/c2ccc(-c3cncc4ccccc34)o2)S1
kinase still bound, per cent of control [10]: 11%
kinase still bound, per cent of control [11]: 33%
kinase still bound, per cent of control [29]: 24%
kinase still bound, per cent of control [31]: 16%
kinase still bound, per cent of control [2]: 8.1%
kinase still bound, per cent of control [34]: 21%
kinase still bound, per cent of control [35]: 23%
kinase still bound, per cent of control [36]: 26%
kinase still bound, per cent of control [37]: 15%
kinase still bound, per cent of control [41]: 13%

SMILES: CN1C(=O)[C@H]2CCC[C@H]2N(C2CCCC2)c2nc(Nc3ccc(C(N)=O)cc3)ncc21
kinase still bound, per cent of control [26]: 6.8%
kinase still bound, per cent of control [31]: 4.7%
kinase still bound, per cent of control [36]: 24%
kinase still bound, per cent of control [39]: 30%
kinase still bound, per cent of control [42]: 31%

SMILES: O=C1NC(=S)S/C1=C\c1ccc(-c2cncc3ccccc23)o1
kinase still bound, per cent of control [7]: 32%
kinase still bound, per cent of control [10]: 32%
kinase still bound, per cent of control [11]: 14%
kinase still bound, per cent of control [29]: 31%
kinase still bound, per cent of control [33]: 25%
kinase still bound, per cent of control [40]: 29%

Other lines, results leading:

kinase still bound, per cent of control [1]: 32%
kinase still bound, per cent of control [2]: 32%
SMILES: CS(=O)(=O)Nc1ccc(-c2cc(/C=C3\SC(=N)NC3=O)c[nH]c2=O)cc1

kinase still bound, per cent of control [3]: 25%
SMILES: Nc1cccc(-c2cc(/C=C3\SC(=O)NC3=O)c[nH]c2=O)c1

kinase still bound, per cent of control [4]: 25%
kinase still bound, per cent of control [5]: 28%
kinase still bound, per cent of control [6]: 26%
SMILES: N=C1NC(=O)/C(=C/c2ccc(-c3ccc(C(N)=O)cc3O)o2)S1

kinase still bound, per cent of control [7]: 29%
SMILES: CS(=O)(=O)Nc1ccc(-c2cncc(/C=C3\SC(=N)NC3=O)c2)cc1

kinase still bound, per cent of control [7]: 80%
kinase still bound, per cent of control [8]: 100%
kinase still bound, per cent of control [9]: 100%
kinase still bound, per cent of control [10]: 65%
kinase still bound, per cent of control [3]: 100%
kinase still bound, per cent of control [1]: 2.4%
kinase still bound, per cent of control [11]: 70%
kinase still bound, per cent of control [12]: 100%
kinase still bound, per cent of control [13]: 100%
kinase still bound, per cent of control [14]: 97%
kinase still bound, per cent of control [15]: 97%
kinase still bound, per cent of control [16]: 57%
kinase still bound, per cent of control [17]: 100%
kinase still bound, per cent of control [18]: 93%
kinase still bound, per cent of control [19]: 86%
kinase still bound, per cent of control [20]: 94%
kinase still bound, per cent of control [21]: 15%
kinase still bound, per cent of control [22]: 10%
kinase still bound, per cent of control [23]: 82%
kinase still bound, per cent of control [24]: 94%
kinase still bound, per cent of control [25]: 100%
kinase still bound, per cent of control [4]: 100%
kinase still bound, per cent of control [26]: 83%
kinase still bound, per cent of control [27]: 93%
kinase still bound, per cent of control [28]: 78%
kinase still bound, per cent of control [29]: 53%
kinase still bound, per cent of control [5]: 90%
kinase still bound, per cent of control [30]: 4.8%
kinase still bound, per cent of control [6]: 0%
kinase still bound, per cent of control [31]: 85%
kinase still bound, per cent of control [32]: 56%
kinase still bound, per cent of control [2]: 8.3%
kinase still bound, per cent of control [33]: 94%
kinase still bound, per cent of control [34]: 46%
kinase still bound, per cent of control [35]: 70%
kinase still bound, per cent of control [36]: 64%
kinase still bound, per cent of control [37]: 100%
kinase still bound, per cent of control [38]: 100%
kinase still bound, per cent of control [39]: 100%
kinase still bound, per cent of control [40]: 92%
kinase still bound, per cent of control [41]: 80%
kinase still bound, per cent of control [42]: 100%
SMILES: O=C1NC(=O)/C(=C/c2c[nH]c(=O)c(-c3ccc(N4CCNCC4)nc3)c2)S1

kinase still bound, per cent of control [34]: 3.4%
SMILES: CS(=O)(=O)Nc1ccc(-c2ncc(/C=C3\SC(=N)NC3=O)s2)cc1

kinase still bound, per cent of control [1]: 3.4%
kinase still bound, per cent of control [2]: 0.1%
SMILES: N=C1NC(=O)/C(=C/c2c[nH]c(=O)c(-c3ccc(N4CCNCC4)nc3)c2)S1

kinase still bound, per cent of control [5]: 31%
SMILES: N=C1NC(=O)/C(=C/c2ccc(-c3ccccc3O)o2)S1

— the kinase profiling compilation of Christmann-Franck et al. (2016)
